Test results taken from US20110040086A1, “Novel Beta-Lactam Antibiotics, Methods for Their Production, and Their Use” (DRITTE PATENTPORTFOLIO BETEILIGUNGSGESELLSCHAFT MB, priority 2007, published 2011).

Experiments:
[1] = system: Bacillus megaterium SBUG 1152; test: agar diffusion test (Test System 1, antimicrobial effect); type: cell-based
Protocol: (§1) Test System 1 (Antimicrobial Effect)
(§2) The test germs Escherichia coli SBUG 1135 and Bacillus megaterium SBUG 1152 are drawn overnight (17 hours at 37° C.) in 5 ml nutrient medium II. The incubation is performed in a shaking incubator (INFORS AG CH 4103, Bottmingen, Switzerland) at a shaking frequency of 180 rpm.
(§3) After 17 h incubation time, Escherichia coli has reached a cell density of ca. 2.4×10^10 cells/ml and Bacillus megaterium a cell density of ca. 2.1×10^8 cells/ml.
(§4) The seeding of bacteria in agar is selected so that, dense, but not confluent individual colonies develop after the incubation.
Bacillus megaterium: 0.1 ml of non-diluted overnight culture (ÜN) in 10 ml nutrient agar corresponds to a cell count of 10^6.
(§5) The inoculated nutrient agar is set in sterile Petri dishes and left standing for a few minutes for drying.
(§6) The test substances are deposited in stepped quantities (10 μg, 50 μg, 100 μg) onto active ingredient carriers (sensi-discs). For this purpose, the test substances are dissolved in methanol or A. dest. according to their solubility. Each inoculated plate is fitted with 3 test sheets.
(§7) After a 20-hour incubation time at 37° C., the zones of inhibition around the individual test sheets could be measured. The diameter of the zone of inhibition is specified in mm.

B. subtilis AWD 166 = test: agar diffusion test (antimicrobial effect); type: cell-based, Bacillus subtilis
Protocol: as §4, §5, §6, §7

[2] = system: Escherichia coli SBUG 1135; test: agar diffusion test (Test System 1, antimicrobial effect); type: cell-based; set-up: key: r = resistant (no detectable zone of inhibition)
Protocol: as §1, §2, §3, §4
Escherichia coli: the ÜN is diluted 1:100 with physiological saline solution, of which 0.1 ml is converted into 10 ml nutrient agar. That corresponds to a cell count of 10^6.
as §5, §6, §7

[3] = system: Enterococcus faecalis 769; test: agar diffusion test (Test System II, multi-resistant germs); type: cell-based; set-up: key: r = resistant (no detectable zone of inhibition)
Protocol: as §6
(§8) Test System II (Effect Against Multi-Resistant Germs)
(§9) For this purpose, bacteria is cultivated on Müller-Hinton-Agar II plates.
(§10) With 1-1.5 ml physiological saline solution, a bacteria suspension of McFarland 0.5 (corresponds to a bacteria density of 150×10^6 germs) is produced. Then, with a sterile glass rod, a small drop of bacteria suspension is placed on the Müller-Hinton-Agar plate and coated in three layers (vertical, horizontal, and transverse). Thereafter, the sensi-discs with the novel semi-synthetic test substances are placed on top. The fitted plates are incubated for 18-20 hours at 37° C. After incubation, the diameters of the zones of inhibition are read as a measure for the antimicrobial activity of the novel semi-synthetic test substances.

[4] = system: Staphylococcus aureus 315; test: as above; type: cell-based; set-up: key: r = resistant (no detectable zone of inhibition)
Protocol: as §6, §8, §9, §10

E. faecalis 945 = test: as above; type: cell-based, Enterococcus faecalis; set-up: key: r = resistant (no detectable zone of inhibition)
Protocol: as §6, §8, §9, §10

S. aureus 33490 = test: as above; type: cell-based, Staphylococcus aureus; set-up: key: r = resistant (no detectable zone of inhibition)
Protocol: as §6, §8, §9, §10

S. aureus 34289 = test: as above; type: cell-based, Staphylococcus aureus; set-up: key: r = resistant (no detectable zone of inhibition)
Protocol: as §6, §8, §9, §10

S. aureus 36881 = test: as above; type: cell-based, Staphylococcus aureus; set-up: key: r = resistant (no detectable zone of inhibition)
Protocol: as §6, §8, §9, §10

S. aureus 39105 = test: as above; type: cell-based, Staphylococcus aureus; set-up: key: r = resistant (no detectable zone of inhibition)
Protocol: as §6, §8, §9, §10

S. aureus 520 = test: as above; type: cell-based, Staphylococcus aureus; set-up: key: r = resistant (no detectable zone of inhibition)
Protocol: as §6, §8, §9, §10

S. aureus 526 = test: as above; type: cell-based, Staphylococcus aureus; set-up: key: r = resistant (no detectable zone of inhibition)
Protocol: as §6, §8, §9, §10

[5] = system: S. aureus North Germany strain; test: as above; type: cell-based, Staphylococcus aureus; set-up: key: r = resistant (no detectable zone of inhibition)
Protocol: as §6, §8, §9, §10

S. aureus 38418 = test: as above; type: cell-based, Staphylococcus aureus
Protocol: as §6, §8, §9, §10

S. aureus ATCC 6538 = test: as above; type: cell-based, Staphylococcus aureus
Protocol: as §6, §8, §9, §10

S. epidermidis 1068 = test: as above; type: cell-based, Staphylococcus epidermidis; set-up: key: r = resistant (no detectable zone of inhibition)
Protocol: as §6, §8, §9, §10

S. epidermidis 1071 = test: as above; type: cell-based, Staphylococcus epidermidis; set-up: key: r = resistant (no detectable zone of inhibition)
Protocol: as §6, §8, §9, §10

S. epidermidis 563 = test: as above; type: cell-based, Staphylococcus epidermidis; set-up: key: r = resistant (no detectable zone of inhibition)
Protocol: as §6, §8, §9, §10

S. epidermidis 847 = test: as above; type: cell-based, Staphylococcus epidermidis; set-up: key: r = resistant (no detectable zone of inhibition)
Protocol: as §6, §8, §9, §10

S. epidermidis 125 = test: as above; type: cell-based, Staphylococcus epidermidis
Protocol: as §6, §8, §9, §10

COC(=O)C1=C(NC(C(=O)NC2C(=O)N3C(C(=O)O)=C(C)CSC23)c2ccc(O)cc2)C(=O)C=CC1=O (stereo not drawn) [1c, 7-[2-(4-hydroxyphenyl)-2-(2-methoxycarbonyl-3,6-dioxocyclohexa-1,4-dienylamino)-acetylamino]-desacetoxycephalosporanic acid]
Diameter of zone of inhibition ([1]; Quantity n 0.019): 22 mm | Diameter of zone of inhibition ([1]; Quantity n 0.1): 30 mm | Diameter of zone of inhibition ([1]; Quantity n 0.19): 32 mm | Diameter of zone of inhibition (B. subtilis AWD 166; Quantity n 0.019): 22 mm | Diameter of zone of inhibition (B. subtilis AWD 166; Quantity n 0.1): 30 mm | Diameter of zone of inhibition (B. subtilis AWD 166; Quantity n 0.19): 32 mm | Diameter of zone of inhibition ([2]; Quantity n 0.019): r | Diameter of zone of inhibition ([2]; Quantity n 0.1): 14 mm | Diameter of zone of inhibition ([2]; Quantity n 0.19): 18 mm | Diameter of zone of inhibition ([3]; Quantity n 0.019): r | Diameter of zone of inhibition ([3]; Quantity n 0.1): r | Diameter of zone of inhibition ([3]; Quantity n 0.19): r | Diameter of zone of inhibition ([4]; Quantity n 0.019): r | Diameter of zone of inhibition ([4]; Quantity n 0.1): r | Diameter of zone of inhibition ([4]; Quantity n 0.19): 12 mm | Diameter of zone of inhibition (E. faecalis 945; Quantity n 0.019): r | Diameter of zone of inhibition (E. faecalis 945; Quantity n 0.1): r | Diameter of zone of inhibition (E. faecalis 945; Quantity n 0.19): r | Diameter of zone of inhibition (S. aureus 33490; Quantity n [μmol] 0.019): r | Diameter of zone of inhibition (S. aureus 33490; Quantity n [μmol] 0.1): 14 mm | Diameter of zone of inhibition (S. aureus 33490; Quantity n [μmol] 0.19): 20 mm | Diameter of zone of inhibition (S. aureus 34289; Quantity n [mol] 0.019): r | Diameter of zone of inhibition (S. aureus 34289; Quantity n [mol] 0.1): r | Diameter of zone of inhibition (S. aureus 34289; Quantity n [mol] 0.19): r | Diameter of zone of inhibition (S. aureus 36881; Quantity n 0.019): r | Diameter of zone of inhibition (S. aureus 36881; Quantity n 0.1): r | Diameter of zone of inhibition (S. aureus 36881; Quantity n 0.19): 14 mm | Diameter of zone of inhibition (S. aureus 39105; Quantity n 0.019): r | Diameter of zone of inhibition (S. aureus 39105; Quantity n 0.1): r | Diameter of zone of inhibition (S. aureus 39105; Quantity n 0.19): 12 mm | Diameter of zone of inhibition (S. aureus 520; Quantity n [mol] 0.019): r | Diameter of zone of inhibition (S. aureus 520; Quantity n [mol] 0.1): r | Diameter of zone of inhibition (S. aureus 520; Quantity n [mol] 0.19): r | Diameter of zone of inhibition (S. aureus 526; Quantity n 0.019): r | Diameter of zone of inhibition (S. aureus 526; Quantity n 0.1): r | Diameter of zone of inhibition (S. aureus 526; Quantity n 0.19): r | Diameter of zone of inhibition ([5]; Quantity n 0.019): r | Diameter of zone of inhibition ([5]; Quantity n 0.1): 10 mm | Diameter of zone of inhibition ([5]; Quantity n 0.19): 14 mm | Diameter of zone of inhibition (S. aureus 38418; Quantity n [mol] 0.019): 10 mm | Diameter of zone of inhibition (S. aureus 38418; Quantity n [mol] 0.1): 22 mm | Diameter of zone of inhibition (S. aureus 38418; Quantity n [mol] 0.19): 28 mm | Diameter of zone of inhibition (S. aureus ATCC 6538; Quantity n 0.019): 18 mm | Diameter of zone of inhibition (S. aureus ATCC 6538; Quantity n 0.1): 26 mm | Diameter of zone of inhibition (S. aureus ATCC 6538; Quantity n 0.19): 30 mm | Diameter of zone of inhibition (S. epidermidis 1068; Quantity n 0.019): r | Diameter of zone of inhibition (S. epidermidis 1068; Quantity n 0.1): 14 mm | Diameter of zone of inhibition (S. epidermidis 1068; Quantity n 0.19): 20 mm | Diameter of zone of inhibition (S. epidermidis 1071; Quantity n 0.019): r | Diameter of zone of inhibition (S. epidermidis 1071; Quantity n 0.1): 14 mm | Diameter of zone of inhibition (S. epidermidis 1071; Quantity n 0.19): 20 mm | Diameter of zone of inhibition (S. epidermidis 563; Quantity n 0.019): r | Diameter of zone of inhibition (S. epidermidis 563; Quantity n 0.1): 14 mm | Diameter of zone of inhibition (S. epidermidis 563; Quantity n 0.19): 20 mm | Diameter of zone of inhibition (S. epidermidis 847; Quantity n [mol] 0.019): r | Diameter of zone of inhibition (S. epidermidis 847; Quantity n [mol] 0.1): 14 mm | Diameter of zone of inhibition (S. epidermidis 847; Quantity n [mol] 0.19): 18 mm | Diameter of zone of inhibition (S. epidermidis 125; Quantity n 0.019): 12 mm | Diameter of zone of inhibition (S. epidermidis 125; Quantity n 0.1): 24 mm | Diameter of zone of inhibition (S. epidermidis 125; Quantity n 0.19): 28 mm
